The source of these data is ChEMBL document CHEMBL5512666, “Selenization of Small Molecule Drugs: A New Player on the Board” (J Med Chem, 2024).

The subject of data set [1] is Candida albicans. The data set can be described thus: Antifungal activity against Candida albicans CPCC 400616. In kind it is functional.
In data set [2] the test system is Candida albicans. The data set can be described thus: Antifungal activity against Candida albicans SC5314. It counts as functional.
The next data set relates to Cryptococcus neoformans. The data set can be described thus: Antifungal activity against Cryptococcus neoformans CGMCC 2.3161. In kind it is functional.
For a further data set, the system named is Pichia kudriavzevii. The data set can be described thus: Antifungal activity against Candida krusei AS 2.1045. It counts as functional.
In a further data set the test system is Candida tropicalis. Nature of the data set: Antifungal activity against Candida tropicalis CGMCC 2.3739. It counts as functional.
The test system of a further data set is Nakaseomyces glabratus. The data set can be described thus: Antifungal activity against Candida glabrata. In kind it is functional.
The test system of a further data set is Candida parapsilosis. The data set can be described thus: Antifungal activity against Candida parapsilosis 22019. It counts as functional. The note with it: Lodderomyces parapsilosis.
For a further data set, the system named is Aspergillus fumigatus. The data set can be described thus: Antifungal activity against Aspergillus fumigatus CGMCC 3.7795. In kind it is functional.
The nature of data set [3]: Stability in rat plasma assessed as half life. It counts as ADME, cell-free.
The next data set deals with Lactoperoxidase (Homo sapiens, UniProt P22079). The data set can be described thus: Inhibition of LPO (unknown origin)-mediated L-tyrosine nitration incubated for 20 mins in presence of H2O2 and sodium nitrite by RP-HPLC analysis.
The test system of data set [4] is HeLa. The data set can be described thus: Cytotoxicity against human HeLa cells assessed as inhibition of cell growth incubated for 96 hrs by MTT assay. In kind it is functional, cell-based.
For a further data set, the system named is HepG2. The data set can be described thus: Cytotoxicity against human HepG2 cells assessed as inhibition of cell growth incubated for 96 hrs by MTT assay. It counts as functional, cell-based. The note with it: HepG2, 96 h. In general terms: Tetrazolium assays rely on reduction of a dye to a coloured formazan, in cell work by metabolically active cells.

The test system of data set [5] is A549. The data set can be described thus: Cytotoxicity against human A549 cells assessed as inhibition of cell growth incubated for 96 hrs by MTT assay. It counts as functional, cell-based. To be noted: A549, 96 h.
The next data set has as its system SMMC-7721. The data set can be described thus: Cytotoxicity against human SMMC-7721 cells assessed as inhibition of cell growth incubated for 96 hrs by MTT assay. In kind it is functional, cell-based. To be noted: SMMC-7721, 96 h.
Data set [6] deals with HeLa. Nature of the data set: Cytotoxicity against human HeLa cells measured after 72 hrs. It counts as functional, cell-based.
Data set [7] concerns A549. Nature of the data set: Cytotoxicity against human A549 cells measured after 72 hrs. It counts as functional, cell-based. The note with it: A549, 72 h.
A further data set relates to HCT-116. The data set can be described thus: Cytotoxicity against human HCT-116 cells measured after 72 hrs. In kind it is functional, cell-based. To be noted: HCT-116, 72 h.
Data set [8] can be described thus: Cytotoxicity against mouse NIH3T3 cells measured after 72 hrs. It counts as toxicity, cell-based.
Data set [9] in a line: Cytotoxicity against mouse L929 cells measured after 72 hrs. It counts as toxicity, cell-based.
Another data set has as its system PANC-1. The data set can be described thus: Cytotoxicity against human PANC-1 cells assessed as reduction in cell viability incubated for 48 hrs by MTT assay. In kind it is functional, cell-based. To be noted: PANC-1, 48 h.
A further data set deals with MIA PaCa-2. The data set can be described thus: Cytotoxicity against human MIA PaCa-2 cells assessed as reduction in cell viability incubated for 48 hrs by MTT assay. It counts as functional, cell-based. The note with it: MIA PaCa-2, 48 h.
The test system of a further data set is BXPC-3. Nature of the data set: Cytotoxicity against human BXPC-3 cells assessed as reduction in cell viability incubated for 48 hrs by MTT assay. It counts as functional, cell-based. To be noted: BXPC-3, 48 h.
A short description of data set [10]: Cytotoxicity against MEF cells assessed as reduction in cell viability incubated for 48 hrs by MTT assay. It counts as toxicity, cell-based. The note with it: mouse.
A further data set concerns LNCaP. Nature of the data set: Cytotoxicity against human LNCaP cells incubated for 48 hrs. It counts as functional, cell-based.
Another data set has as its system PC-3. Nature of the data set: Cytotoxicity against human PC-3 cells incubated for 48 hrs. It counts as functional, cell-based. The note with it: PC-3, 48 h.
The next data set concerns DU-145. Nature of the data set: Cytotoxicity against human DU-145 cells incubated for 48 hrs. To be noted: DU-145, 48 h. In kind it is functional, cell-based.

Converted amounts (≈) assume the structure as drawn. Bounds are passed on as bounds.

Sequence of Lactoperoxidase (P22079 whole entry): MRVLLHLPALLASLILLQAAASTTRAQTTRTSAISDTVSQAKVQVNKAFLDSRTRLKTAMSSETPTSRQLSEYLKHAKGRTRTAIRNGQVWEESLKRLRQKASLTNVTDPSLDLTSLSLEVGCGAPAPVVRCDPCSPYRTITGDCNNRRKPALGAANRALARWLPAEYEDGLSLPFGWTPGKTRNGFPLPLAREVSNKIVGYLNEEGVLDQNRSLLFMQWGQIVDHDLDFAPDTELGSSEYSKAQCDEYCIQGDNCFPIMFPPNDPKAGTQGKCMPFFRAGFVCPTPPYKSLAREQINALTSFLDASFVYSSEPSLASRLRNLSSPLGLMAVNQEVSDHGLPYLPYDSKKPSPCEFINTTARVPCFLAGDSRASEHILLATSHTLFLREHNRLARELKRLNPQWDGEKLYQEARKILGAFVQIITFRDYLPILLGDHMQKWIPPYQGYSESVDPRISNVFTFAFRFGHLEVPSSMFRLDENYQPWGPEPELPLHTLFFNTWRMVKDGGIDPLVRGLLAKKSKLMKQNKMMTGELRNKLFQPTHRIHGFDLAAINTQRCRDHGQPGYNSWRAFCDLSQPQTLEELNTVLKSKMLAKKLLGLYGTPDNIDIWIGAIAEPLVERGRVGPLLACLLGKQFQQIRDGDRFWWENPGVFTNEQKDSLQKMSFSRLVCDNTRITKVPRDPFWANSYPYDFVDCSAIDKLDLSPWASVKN

For the molecule `Cc1ccccc1[Se]C(Cn1ccnc1)c1ccc(Cl)cc1` (stereo unspecified), the minimal inhibitory concentration (MIC) with Candida albicans [1] stood at 0.06 µg/mL (≈ 0.16 µM); with Candida albicans [2], 0.03 µg/mL (≈ 0.0798 µM); with Cryptococcus neoformans, 0.5 µg/mL (≈ 1.33 µM); in the data set with Pichia kudriavzevii, 0.13 µg/mL (≈ 0.346 µM); in the data set on Candida tropicalis, 0.03 µg/mL (≈ 0.0798 µM); in the data set with Nakaseomyces glabratus it was 0.5 µg/mL (≈ 1.33 µM). Further, the MIC in the data set with Candida parapsilosis is 0.5 µg/mL (≈ 1.33 µM); against Aspergillus fumigatus, 4 µg/mL (≈ 10.6 µM). Besides, the half-life in data set [3] is above 6 h.

As to `Cn1cc[nH]c1=S` [METHIMAZOLE], the IC50 on Lactoperoxidase stood at 510 nM.

For `COc1cccc(Cn2ccn(Cc3cccc(OC)c3)c2=S)c1`, the IC50 on Lactoperoxidase came to 137000 nM.

Take `O=C(Nc1ccn([C@@H]2O[C@H](CO)[C@@H](O)C2(F)F)c(=O)n1)OC1C[Se][Se]C1`: the IC50 worked out at 880 nM with HeLa [4], 470 nM in the data set with HepG2, 110 nM with A549 [5] and 330 nM in the data set on SMMC-7721.

Turning to `CC[C@@]1(OC(=O)OCc2ccc(O/C=C/[Se]c3ccccc3)cc2)C(=O)OCc2c1cc1n(c2=O)Cc2cc3ccccc3nc2-1`, the values for the IC50 in the data set on HeLa [6], in the data set with A549 [7] and in the data set with HCT-116 were 308 nM, 102 nM and 43 nM, respectively. For the same molecule, the values for the IC50 at 72 h in [8] and in [9] were 1180 nM and 10200 nM, respectively.

With `Nc1ccn([C@@H]2O[C@H](CO)[C@@H](O)C2(F)F)c(=O)n1` [GEMCITABINE], the IC50 with HeLa [4] was 3900 nM; in the data set with HepG2, 2460 nM; in the data set on A549 [5], 690 nM; in the data set on SMMC-7721, 460 nM.

For `CC[C@@]1(O)C(=O)OCc2c1cc1n(c2=O)Cc2cc3ccccc3nc2-1` [CAMPTOTHECIN], the values for the IC50 in the data set on HeLa [6], in the data set on A549 [7] and with HCT-116 were 108 nM, 21 nM and 11 nM, respectively. In addition, the values for the IC50 at 72 h in data set [8] and in [9] were 86 nM and 1130 nM, respectively.

In the case of `CC(=O)Oc1ccccc1C(=O)/N=C1\[Se]CCN1C(=O)c1ccccc1OC(C)=O`, the IC50 is 740 nM in the data set on PANC-1; 3030 nM in the data set on MIA PaCa-2; 2090 nM with BXPC-3; 2340 nM in the data set on LNCaP; 1700 nM in the data set with PC-3; 520 nM in the data set on DU-145. Besides, in data set [10], the IC50 at 48 h was above 50000 nM.

The term MIC denotes the lowest concentration found to suppress growth. A low value points to a more susceptible organism. One may read the half-life as the time needed for the level to fall by half in the phase considered. What is called IC50 is the concentration that inhibits the measured activity by half.
